This is an account of results in patent US11981626B1, “Compound embodiments for hydrogen sulfide production and methods of making and using the same” (University of Oregon, priority 2018, dated 2024).

For series [1], the system named is macrophage RAW 264.7 cells. The series can be described thus: LPS-induced NO2− formation in macrophage RAW 264.7 cells (Griess). The class given is cell-based. Conditions: 25 μM pretreatment 6 hours, LPS 1.0 μg/mL 18 hours. Here is the method: In this example, the ability of embodiments of the disclosed donor compound to provide anti-inflammatory activity was evaluated. To investigate the potential protective effects of the developed donors, pretreated macrophage RAW 264.7 cells were pretreated with γ-KetoTCM-1 (25 μM) for 6 hours, followed by an 18-hour incubation with lipopolysaccharide (LPS, 1.0 μg/mL) to induce an inflammatory response. This response is accompanied by an increase in NO production, which was monitored by measuring nitrite (NO2−) accumulation. To determine whether the observed effects were due to COS/H2S release, control experiments with γ-KetoTCM-3, γ-KetoCM-1, and GYY4137 under the identical condition also were performed. GYY4137 was used as a positive control because it has shown anti-inflammatory effects previously, and because it generates a slow, continuous release of H2S.
In this example, macrophage RAW 264.7 cells were seeded in a 24-well plate (5×10^5 cells/well) containing 0.50 mL of DMEM and incubated at 37° C. under 5% CO2 for 24 hours. The confluent cells were washed with PBS and incubated with either γ-KetoTCM-1, γ-KetoTCM-3, γ-KetoCM-1, or GYY4137 (25.0 μM) at 37° C. for 6 hours. Compounds were then removed by washing cells with PBS and these pretreated cells were incubated in FBS-free DMEM containing LPS (1.00 μg/mL) for 18 hours. NO2− levels were measured by using a Griess Reagent Kit.

Series [2] is described as follows: COS/H2S release monitored by PNA formation (UV-Vis) in PBS containing CA. Type of series: physicochemical. Conditions: for half-life at 50 μM: PBS containing carbonic anhydrase (CA), pH 7.4, pH 7.4 PBS, ln(2)/kobs; for half-life at 50 μM / kobs (COS/H2S releasing kinetics): 37° C.; for kobs (COS/H2S releasing kinetics) / krel: pH 7.4 PBS; for kobs (COS/H2S releasing kinetics): CA 25 μg/mL, 50 μM; for krel: relative to γ-KetoTCM-1 at pH 7.4. Here is the method:
To investigate COS/H2S release from donor compound embodiments, γ-KetoTCM-1 (50 μM) was incubated in PBS (pH 7.4, 10 mM) containing CA (25 μg/mL) and H2S release was detected by monitoring para-nitroaniline (PNA) formation at 37° C. In particular, a γ-KetoTCM-1 stock solution (15.0 μL, 10.0 mM in DMSO) was added to 3.00 mL of PBS (pH 6.00, 7.40 or 8.00, 10.0 mM) containing CA (25.0 μg/mL) in a quartz UV cuvette. The absorbance (250-500 nm) was measured and recorded by using Agilent Cary 100 or Cary 60 UV-Vis spectrometers at 37° C. kobs was then obtained by plotting the absorbance ratio of PNA and γ-KetoTCM-1 versus time and t1/2 was calculated by dividing In(2) by kobs.
In this example, pH effects on COS/H2S release were investigated by incubating γ-KetoTCM-1 (50 μM) in PBS (pH 6.0-8.0) and monitoring with a UV-Vis spectrometer. […] In particular, a γ-KetoTCM-1 stock solution (15.0 μL, 10.0 mM in DMSO) was added to 3.00 mL of PBS (pH 6.00, 10.0 mM) containing CA (25.0 μg/mL) in a 3-mL UV cuvette. The absorbance (250-500 nm) was measured and recorded at 37° C. kobs was then obtained by plotting the absorbance ratio of PNA and γ-KetoTCM-1 vs time.

In series [3] the test system is HeLa cells. The series can be described thus: H2S delivery in HeLa cells imaged with SF7-AM fluorescent probe. The class given is cell-based. The conditions noted are these: 100 μM, 2 hours. Here is the method:
In this example, it was evaluated whether γ-KetoTCM-based donors can be activated to deliver H2S in cellular environments. SF7-AM, a cell-trappable H2S fluorescent probe, was used to monitor H2S accumulation from γ-KetoTCM-1 in HeLa cells. In the absence of γ-KetoTCM-1, no fluorescent signal from SF7-AM was observed, indicating negligible endogenous H2S (FIG. 9, left column, including the top and bottom images).
HeLa cells were plated in poly-D-lysine coated plates (MatTek) containing 2.00 mL of DMEM and incubated at 37° C. under 5% CO2 for 24 hours. The confluent cells were washed with PBS and then co-incubated with SF7-AM (5.00 μM) and NucBlue nuclear dye (2 drops) for 30 minutes. The cells were then washed with PBS and incubated with either γ-KetoTCM-1 (100 μM) or γ-KetoCM-1 (100 μM) alone for 2 hours. Prior to imaging, the cells were washed with PBS and bathed in 2.00 mL of PBS. Cell imaging was performed on a Leica DMi8 fluorescent microscope.

In the case of `C1COCCN1.COc1ccc(P(=S)(S)N2CCOCC2)cc1` (centres unmarked) [GYY4137, reference compound], the “effect on LPS-induced NO2− production” value in series [1] was “less pronounced effect”.
As to `CC(=O)C(C)(C)COC(=S)Nc1ccc([N+](=O)[O-])cc1` [γ-KetoTCM-3], in series [2] (PBS pH 7.4, 37° C.), the “PNA released in PBS buffer (indicating COS/H2S release)” value was “negligible”. The “effect on LPS-induced NO2− production” value in series [1] is given as “modest reduction”.
As for `CC(=O)C(C)COC(=S)Nc1ccc([N+](=O)[O-])cc1` (centres unmarked) [γ-KetoTCM-2], in series [2], the half-life at 50 μM is 25.9 h, the “kobs (COS/H2S releasing kinetics)” value is given as 0.82 ± 0.02 ×10^−5 s^−1 and the krel worked out at 0.188.
As to `CC(=O)CCOC(=O)Nc1ccc([N+](=O)[O-])cc1` [γ-KetoCM-1], in series [2], the half-life at 50 μM is 13.4 ± 0.3 h, the “kobs (COS/H2S releasing kinetics)” value was 1.44 ± 0.03 ×10^−5 s^−1 and the krel came to 0.32. The “SF7-AM fluorescence (H2S accumulation)” value in series [3] is “failed to provide a SF7-AM signal”. Further, the “effect on LPS-induced NO2− production” value in series [1] is “reduced NO2− levels, although to a lesser extent than γ-KetoTCM-1”.
